Source: patent US8013153B2, “Substituted pyrimidine kinase inhibitors” (Janssen Pharmaceutica, N.V., priority 2006, dated 2011)
“Also recorded” adds a separate entry of the source.

Experiments:
[1] = target: C-Raf (Homo sapiens, UniProt P04049); test: RAF Kinase Screening Assay (C-Raf); settings: Compound 50 tested at 30 μM
[2] = tested on: HeLa cervical adenocarcinoma; test: Inhibition of in vitro cell proliferation (HeLa); assay type: cell-based, human; settings: Homo sapiens, 14C-thymidine incorporation;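 note: cells exposed to compound for 24 h, then labelled 24 h with methyl 14C-thymidine, with uptake into DNA counted by scintillation against DMSO-only control wells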
[3] = tested on: A375 human skin melanoma; test: In vivo inhibition of tumor growth, A375 model; design: species or system athymic nude mice
Text: Female Nu/Nu˜nuBR athymic nude mice (obtained from Charles River Laboratories), at the age of 5-6 weeks were feed water and an irradiated standard rodent diet ad libitum, and housed in specific pathogen-free conditions, according to the guidelines of the American Association for Accreditation of Lab Animal Care (AALAC).
Mice were implanted subcutaneously in the right hind flank with the various tumor cell suspensions in HBSS containing 10% FBS: A431 human epidermoid carcinoma (4×10^6 cells/mouse), HCT116 human colorectal carcinoma (4×10^6 cells/mouse) and A375 human skin melanoma (2×10^6 cells/mouse).
The A431 epidermoid carcinoma cell line was chosen due to its ability to secrete VEGF in culture and its dependency on VEGF for angiogenesis and growth in vivo (Viloria-Petit A, Crombet T, Jothy S, et al. (2001) Cancer Res 61: 5090-5101). The HCT116 colon carcinoma cell line is dependent on the expression of VEGF to form tumors in nude mice (Okada F, Rak J, St. Croix B, et al. (1998) Proc Natl Acad Sci USA 95: 3609-3614). […]
In the A375 model, Compound 50 was administered at 100 mg/kg, qd. Treatment ended after 28 days, then tumor growth delay was analyzed to day 60.
The tumors were allowed to establish growth for 10 to 14 days. Tumor size was measured every 3 days. […]
Tumor measurements and body weights were recorded individually (2×/week) during the treatment period of the experiment. Tumors were measured using a digital caliper. Data was recorded/calculated using Study Director software (StudyLog Systems, Inc.) and graphs were created in GraphPad Prizm.
The volume of each tumor in an animal was calculated according to the formula: (D×d^2)/2, where the diameters were determined from two orthogonal measurements on each tumor. The mean tumor volume was determined by averaging all tumor volumes in each group. The mean body weight was determined by averaging all body weights in each group.
The standard deviation was calculated according to the formula (where x was the tumor volume): [Σx^2−((Σx)2/n)]/n−1 […]

Sequence of C-Raf (P04049 whole entry, species assumed): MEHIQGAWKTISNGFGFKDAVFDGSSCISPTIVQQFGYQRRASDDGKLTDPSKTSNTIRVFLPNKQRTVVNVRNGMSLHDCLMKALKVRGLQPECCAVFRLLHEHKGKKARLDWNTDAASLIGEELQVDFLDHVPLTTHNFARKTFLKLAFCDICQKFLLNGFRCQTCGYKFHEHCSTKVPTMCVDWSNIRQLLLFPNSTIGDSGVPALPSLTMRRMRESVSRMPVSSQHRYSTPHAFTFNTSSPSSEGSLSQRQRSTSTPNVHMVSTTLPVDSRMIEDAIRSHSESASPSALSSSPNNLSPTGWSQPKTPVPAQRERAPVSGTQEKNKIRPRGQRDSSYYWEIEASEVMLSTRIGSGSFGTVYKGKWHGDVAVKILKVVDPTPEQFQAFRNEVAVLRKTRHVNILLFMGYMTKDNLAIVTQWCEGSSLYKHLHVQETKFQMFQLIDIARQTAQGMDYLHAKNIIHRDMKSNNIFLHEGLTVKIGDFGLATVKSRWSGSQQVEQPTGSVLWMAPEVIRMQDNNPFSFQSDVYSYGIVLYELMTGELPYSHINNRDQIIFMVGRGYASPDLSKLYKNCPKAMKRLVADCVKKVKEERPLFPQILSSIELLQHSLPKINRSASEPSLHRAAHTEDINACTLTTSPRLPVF

CCNC(=O)Nc1ccc(Oc2ncnc(N)c2/C=N/OC)cc1Cl [Cpd 50, 1-{4-[6-amino-5-(methoxyimino-methyl)-pyrimidin-4-yloxy]-2-chloro-phenyl}-3-ethyl-urea] was tested, and the “activity against C-Raf” value [1] was “no activity; also recorded: not active”, the IC50 [2] was 3.57 µM and the “tumor growth delay maintained after completion of treatment” value ([3]; 100 mg/kg qd for 28 days) was 3 weeks. The “body weights of treated animals” value ([3]; 28 days of continuous dosing, 100 mg/kg) was “comparable to the control group” and the inhibition of growth ([3]; daily doses of 100 mg/kg, oral, 28 days) was 90%.
